Data: patent publication US20220317138A1, “METHODS FOR DETERMINING THE CONCENTRATION OF A CARBAPENEM ANTIBIOTIC IN A BIOLOGICAL SAMPLE” (priority 2019, published 2022)
Where two headings read alike, the source gives them in different places.

B1: Oxa48: beta-lactamase class D OXA-48 from Klebsiella pneumoniae, used as biosensor (protein, listed as Klebsiella pneumoniae)
chain: MRVLALSAVFLVASIIGMPAVAKEWQENKSWNAHFTEHKSQGVVVLWNENKQQGFTNNLKRANQAFLPASTFKIPNSLIALDLGVVKDEHQVFKWDGQTRDIATWNRDHNLITAMKYSVVPVYQEFARQIGEARMSKMLHAFDYGNEDISGNVDSFWLDGGIRISATEQISFLRKLYHNKLHVSERSQRIVKQAMLTEANGDYIIRAKTGYSTRIEPKIGWWVGWVELDDNVWFFAMNMDMPTSDGLGLRQAITKEVLKQEKIIP
modifications: PEPTIDE (1)..(22) SIGNAL PEPTIDE
notes: beta-lactamase class D OXA-48 from Klebsiella pneumoniae, used as biosensor

Columns and labels:
[1] = biological target: T1, beta-lactamase class D OXA-48 (Klebsiella pneumoniae, UniProt Q6XEC0); format: biochemical; details: for Accuracy <> (average) / [Meropenem] <> (average): average of 5 replicates
From the text: The specificity (or selectivity) of the method according to an embodiment of the invention is defined as the ability of the method to measure the concentration of a carbapenem antibiotic (such as meropenem) in presence of an excess of another beta-lactam antibiotic (second beta-lactam) currently used in ICUs (see Table 4).
To determine the specificity of the method illustrating the invention for carbapenem antibiotics, in particular meropenem, versus other beta-lactam antibiotics, stock-solutions of second beta-lactam antibiotics were prepared in water.
An excess of a second beta-lactam concentration of up to 10 times the concentration of meropenem was used.

[2] = biological target: Imp1 beta-lactamase (class B) (Serratia marcescens, UniProt P52699); format: biochemical; details: nitrocefin reporter
Chain of Imp1 beta-lactamase (class B) (P52699 19-246 limits assumed): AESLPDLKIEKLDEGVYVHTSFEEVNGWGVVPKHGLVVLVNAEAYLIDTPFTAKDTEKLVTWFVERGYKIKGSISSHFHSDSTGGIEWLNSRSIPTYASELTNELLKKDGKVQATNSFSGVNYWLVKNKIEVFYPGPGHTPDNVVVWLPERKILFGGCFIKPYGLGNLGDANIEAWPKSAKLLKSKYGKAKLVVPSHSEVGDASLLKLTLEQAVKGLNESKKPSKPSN

[3] = system: AmpCHD beta-lactamase (class C); assay: Screening of beta-lactamases by competition, nitrocefin as reporter substrate; format: biochemical
[4] = biological target: P99 beta-lactamase (class C) (Enterobacter cloacae, UniProt P05364); format: biochemical; details: nitrocefin reporter
Chain of P99 beta-lactamase (class C) (P05364 21-381): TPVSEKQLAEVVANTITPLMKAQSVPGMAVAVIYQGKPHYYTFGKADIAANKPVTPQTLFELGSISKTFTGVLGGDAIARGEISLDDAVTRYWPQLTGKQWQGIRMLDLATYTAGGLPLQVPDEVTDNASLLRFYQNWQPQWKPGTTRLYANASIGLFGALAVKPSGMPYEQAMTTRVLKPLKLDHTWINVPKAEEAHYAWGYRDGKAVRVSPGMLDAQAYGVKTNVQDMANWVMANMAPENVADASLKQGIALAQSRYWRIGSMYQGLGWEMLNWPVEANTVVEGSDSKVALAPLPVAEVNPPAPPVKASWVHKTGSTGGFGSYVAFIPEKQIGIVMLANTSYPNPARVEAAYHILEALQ

[5] = system: Imp4 beta-lactamase (class B); assay: Screening of beta-lactamases by competition, nitrocefin as reporter substrate; format: biochemical
[6] = system: Per2 beta-lactamase (class A); assay: as above; format: biochemical
[7] = biological target: T1, beta-lactamase class D OXA-48; format: biochemical; details: calibration curves FIG. 2, FIG. 3
[8] = Activity loss of the beta-lactamase in 1 h; format: physicochemical; details: enzyme activity
[9] = Meropenem 1.2 mg/L, second β-lactam 10.0 mg/L (8.4 times excess)
[10] = Meropenem 20.0 mg/L, second β-lactam 200.0 mg/L (10 times excess)

| Molecule | Accuracy <> (average) [1, 9] | [Meropenem] <> (average) [1, 9] | Accuracy Replicate 1 [1, 9] | [Meropenem] Replicate 1 [1, 9] | Accuracy Replicate 2 [1, 9] | [Meropenem] Replicate 2 [1, 9] | Accuracy Replicate 3 [1, 9] | [Meropenem] Replicate 3 [1, 9] | Accuracy Replicate 4 [1, 9] | [Meropenem] Replicate 4 [1, 9] | Accuracy Replicate 5 [1, 9] | [Meropenem] Replicate 5 [1, 9] | Accuracy <> (average) [1, 10] | [Meropenem] <> (average) [1, 10] | Accuracy Replicate 1 [1, 10] | [Meropenem] Replicate 1 [1, 10] | Accuracy Replicate 2 [1, 10] | [Meropenem] Replicate 2 [1, 10] | Accuracy Replicate 3 [1, 10] | [Meropenem] Replicate 3 [1, 10] | further results |
| --- | --- | --- | --- | --- | --- | --- | --- | --- | --- | --- | --- | --- | --- | --- | --- | --- | --- | --- | --- | --- | --- |
| CO/N=C(\C(=O)N[C@@H]1C(=O)N2C(C(=O)O)=C(COC(C)=O)CS[C@H]12)c1csc(N)n1 [Cefotaxim ® Sandoz] | 111% | 1.3 mg/L | 109% | 1.3 mg/L | 116% | 1.3 mg/L | 107% | 1.2 mg/L | 110% | 1.3 mg/L | 115% | 1.3 mg/L | 92% | 20.5 mg/L | 93% | 20.8 mg/L | 94% | 20.9 mg/L | 91% | 20.2 mg/L | Accuracy Replicate 4 [1, 10]: 91%; [Meropenem] Replicate 4 [1, 10]: 20.2 mg/L; Accuracy Replicate 5 [1, 10]: 91%; [Meropenem] Replicate 5 [1, 10]: 20.2 mg/L; hydrolysis rate symbol, (Vmax/V0)-1 [2]: + (0.1-1); hydrolysis rate symbol, (Vmax/V0)-1 [3]: + (0.1-1); hydrolysis rate symbol, (Vmax/V0)-1 [4]: ++++ (>100); hydrolysis rate symbol, (Vmax/V0)-1 [5]: + (0.1-1) |
| CC1(C)S[C@@H]2[C@H](NC(=O)[C@H](N)c3ccccc3)C(=O)N2[C@H]1C(=O)O [Pentrexyl ®] | 112% | 1.3 mg/L | 122% | 1.4 mg/L | 112% | 1.3 mg/L | 110% | 1.3 mg/L | 109% | 1.3 mg/L | 108% | 1.3 mg/L | 95% | 21.1 mg/L | 92% | 20.5 mg/L | 93% | 20.8 mg/L | 96% | 21.4 mg/L | Accuracy Replicate 4 [1, 10]: 95%; [Meropenem] Replicate 4 [1, 10]: 21.3 mg/L; Accuracy Replicate 5 [1, 10]: 98%; [Meropenem] Replicate 5 [1, 10]: 21.8 mg/L; hydrolysis rate symbol, (Vmax/V0)-1 [3]: +++ (10-100); hydrolysis rate symbol, (Vmax/V0)-1 [4]: ++ (1-10); hydrolysis rate symbol, (Vmax/V0)-1 [6]: + (0.1-1) |
| Cc1onc(-c2ccccc2)c1C(=O)N[C@@H]1C(=O)N2[C@@H]1SC(C)(C)[C@@H]2C(=O)O [Penstapho ®] | 119% | 1.4 mg/L | 115% | 1.3 mg/L | 123% | 1.4 mg/L | 121% | 1.4 mg/L | 122% | 1.4 mg/L | 116% | 1.3 mg/L | 103% | 22.9 mg/L | 98% | 21.8 mg/L | 104% | 23.2 mg/L | 104% | 23.1 mg/L | Accuracy Replicate 4 [1, 10]: 107%; [Meropenem] Replicate 4 [1, 10]: 23.8 mg/L; Accuracy Replicate 5 [1, 10]: 102%; [Meropenem] Replicate 5 [1, 10]: 22.7 mg/L; hydrolysis rate symbol, (Vmax/V0)-1 [3]: ++ (1-10); hydrolysis rate symbol, (Vmax/V0)-1 [4]: ++++ (>100); hydrolysis rate symbol, (Vmax/V0)-1 [6]: ++ (1-10) |
| CO/N=C(\C(=O)N[C@@H]1C(=O)N2C(C(=O)O)=C(COC(N)=O)CS[C@H]12)c1ccco1 [Zinacef ®] | 104% | 1.2 mg/L | 108% | 1.3 mg/L | 97% | 1.1 mg/L | 100% | 1.2 mg/L | 104% | 1.2 mg/L | 111% | 1.3 mg/L | 98% | 21.9 mg/L | 98% | 21.8 mg/L | 98% | 21.9 mg/L | 95% | 21.2 mg/L | Accuracy Replicate 4 [1, 10]: 101%; [Meropenem] Replicate 4 [1, 10]: 22.4 mg/L; Accuracy Replicate 5 [1, 10]: 99%; [Meropenem] Replicate 5 [1, 10]: 22.0 mg/L; hydrolysis rate symbol, (Vmax/V0)-1 [2]: + (0.1-1); hydrolysis rate symbol, (Vmax/V0)-1 [3]: + (0.1-1); hydrolysis rate symbol, (Vmax/V0)-1 [4]: ++++ (>100) |
| C[C@@H](O)[C@H]1C(=O)N2C(C(=O)O)=C(S[C@@H]3CN[C@H](C(=O)Nc4cccc(C(=O)O)c4)C3)[C@H](C)[C@H]12 [ertapenem] |  |  |  |  |  |  |  |  |  |  |  |  |  |  |  |  |  |  |  |  | determining the concentration using OXA-48 [7]: possible |
| CO/N=C(\C(=O)N[C@@H]1C(=O)N2C(C(=O)O)=C(CSc3nc(=O)c(O)nn3C)CS[C@H]12)c1csc(N)n1 [Ceftria ®] | 112% | 1.3 mg/L | 105% | 1.2 mg/L | 111% | 1.3 mg/L | 112% | 1.3 mg/L | 116% | 1.3 mg/L | 113% | 1.3 mg/L | 95% | 21.1 mg/L | 100% | 22.3 mg/L | 96% | 21.4 mg/L | 96% | 21.4 mg/L | Accuracy Replicate 4 [1, 10]: 90%; [Meropenem] Replicate 4 [1, 10]: 20.0 mg/L; Accuracy Replicate 5 [1, 10]: 91%; [Meropenem] Replicate 5 [1, 10]: 20.4 mg/L; hydrolysis rate symbol, (Vmax/V0)-1 [4]: +++ (10-100) |
| C[C@@H](O)[C@H]1C(=O)N2C(C(=O)O)=C(S[C@@H]3CN[C@H](CNS(N)(=O)=O)C3)[C@H](C)[C@H]12 [doripenem] |  |  |  |  |  |  |  |  |  |  |  |  |  |  |  |  |  |  |  |  | determining the concentration using OXA-48 [7]: possible |
| CC(C)(O/N=C(\C(=O)N[C@@H]1C(=O)N2C(C(=O)[O-])=C(C[n+]3ccccc3)CS[C@H]12)c1csc(N)n1)C(=O)O [Ceftazidime] | 111% | 1.3 mg/L | 108% | 1.3 mg/L | 105% | 1.2 mg/L | 108% | 1.3 mg/L | 112% | 1.3 mg/L | 118% | 1.4 mg/L | 100% | 20.1 mg/L | 102% | 20.6 mg/L | 97% | 19.6 mg/L | 100% | 20.1 mg/L | Accuracy Replicate 4 [1, 10]: 100%; [Meropenem] Replicate 4 [1, 10]: 20.2 mg/L; Accuracy Replicate 5 [1, 10]: 99%; [Meropenem] Replicate 5 [1, 10]: 20.0 mg/L; hydrolysis rate symbol, (Vmax/V0)-1 [4]: + (0.1-1) |
| B1 |  |  |  |  |  |  |  |  |  |  |  |  |  |  |  |  |  |  |  |  | Activity loss in 1 h [8]: 0% |
